According to paper PMC9494960, “Antiamoebic Activity of Imidazothiazole Derivatives against Opportunistic Pathogen Acanthamoeba castellanii” (Antibiotics, 2022):

Experiments:
human cell lines = experiment: MTT assay (EC50/CC50 and MNTD90); type: cell-based; conditions: for EC90: Maximum Non-Toxic Dose, read-out: MNTD/EC90; for CC50: 50% effective/cytotoxic concentration (CC50), tested at 12.5–100 µM
[1] = test system: A. castellanii genotype T4 (ATCC 50492) trophozoites; experiment: Amoebicidal assay (Trypan blue exclusion, haemocytometer counting); type: cell-based, Acanthamoeba castellanii; conditions: for Amoebicidal Activity Inhibition % ± SEM: 50 µM concentration, Supplementary Table S1; for IC50: tested at 12.5, 25, 50 and 100 µM against A. castellanii; for amoebicidal effects / antiamoebic activity against A. castellanii: 50 µM, 24 h, 30 °C
Description: A. castellanii genotype T4 (ATCC 50492) trophozoites were used in this study. The amoebae were axenically cultivated at 30 °C in T-75 cm^3 culture flask using a proteose-peptone yeast extract-glucose (PYG) broth culture. Upon confluency, amoeba cultured flask was placed on ice for 10 min followed by gently tapping to dislodge the adhered trophozoites. Next, culture was centrifuged at 3000× g for 5 min. The supernatant was discarded and the pellet was re-suspended in 1 mL of Roswell Park Memorial Institute (RPMI) media. Finally, amoebae were counted via haemocytometer microscopically and the desired initial inoculum (5 × 10^5) was adjusted and used in different assays. Different molecules were tested against A. castellanii to examine their antiamoebic effects as previously reported. Briefly, A. castellanii (5 × 10^5) were incubated with 50 µM of the tested compounds for 24 h at 30 °C with a final assays volume of 0.5 mL in a 24-well plate. For controls, amoebae cultured in RPMI alone and with 0.25% sodium dodecyl sulfate (SDS) was taken as negative and positive control, respectively. Finally, each well was stained with Trypan blue (0.1%) and viable amoebae trophozoites were enumerated by haemocytometer. In some trails, these compounds were tested at different concentrations (12.5, 25, 50 and 100 µM) to determine their 50% inhibitory concentration (IC50) against A. castellanii.

[2] = test system: A. castellanii binding to HeLa cells; experiment: Adhesion assay: amoebae binding to human cells; type: cell-based, Acanthamoeba castellanii; conditions: amoebae pre-treated with 50 µM for 2 h; 60 min on HeLa monolayer
Description: Adhesion assays were performed to determine how the tested molecules affect the binding capability of amoebae to human cells. Firstly, A. castellanii (5 ×10^5) trophozoites were treated with 50 µM of the compounds in serum-free RPMI medium at 30 °C for 2 h. Next, pre-treated amoebae were centrifuged at 3000× g for 5 min and re-suspended the amoeba in 200 µL of RPMI medium. The total assay volume including pre-treated amoeba was transferred to a confluent HeLa cell monolayer cultured in 96-well plates. For control, amoebae trophozoites alone were added to HeLa cell monolayer. The plates were incubated for 60 min at 37 °C with 5% CO2 and 95% humidity and amoebae (unbound) were then counted by haemocytometer. Percent bound amoebae was calculated using the following formula: % amoebae (bound) = 100 − amoebae (unbound)(1)

HeLa cells = experiment: In vitro cytotoxicity, lactate dehydrogenase (LDH) assay; type: cell-based, human; conditions: 50 µM, 24 h, LDH release
Description: HeLa cells were obtained from the American Type Culture Collection (ATCC CCL-2) and grown at 37 °C with 5% CO2 and 95% humidity in RPMI supplemented with 10% fetal bovine serum (FBS), 1% minimum essential medium amino acids, 1% Penicillin-Streptomycin (Pen-Strep) and 1% L-glutamine. The media was removed aseptically, and cells were detached enzymatically using 2 mL of trypsin EDTA. Next, culture containing dislodged cells was centrifuged at 2500× g for 5 min. The cell pellet was resuspended in the above-mentioned media, subsequently added into 96-well plates and utilized in different assays. In vitro cytotoxic effects of the tested molecules were determined using Lactate dehydrogenase (LDH) assays against human cells. In brief, 50 µM concentration of the tested compounds were incubated with HeLa cells monolayer for 24 h at 37 °C with 5% CO2 in humidified conditions. After this incubation, 0.1% triton X-100 was added to the positive control wells and incubated the plate for 45 min at 37 °C. Then, an equal volume of cells supernatant containing liberated LDH enzyme was mixed with an equal volume of LDH kit reagents (Cytotoxicity Detection kit; Roche Diagnostics, Indianapolis, IN, USA). The positive and negative controls were cell monolayers treated with 0.1 percent Triton X-100 and in RPMI alone. The plate was subjected to multi-plate reader and absorbance was recorded at 490 nm. The percent cytotoxicity was calculated using given formula; % Cell cytotoxicity = sample value − negative control value/positive control value − negative control value × 100.

[3] = test system: A. castellanii trophozoites; experiment: Encystation assay; type: cell-based, Acanthamoeba castellanii; conditions: 50 µM, 16% glucose, 30 °C, 48–72 h; negative control 100%
Description: Encystation assays were performed to determine the effects of the tested compounds to prevent the differentiation of A. castellanii trophozoites into the cyst form and 50 µM of the tested compounds were utilized. Briefly, A. castellanii (1 × 10^6) trophozoites were incubated with these compounds with 16% filter-sterilized glucose (as encystation medium) at 30 °C 48–72 h. A. castellanii cultured alone in 16% glucose was taken as negative control. After this incubation, 0.1% sodium dodecyl sulfate (SDS) was added to each well and agitated the plate for 20 min. The SDS resistant cysts were enumerated using a haemocytometer and data was recoded.

O=C(NCCNc1nccc(-c2c(-c3cccc(O)c3)nc3sccn23)n1)c1ccccc1 [Compound 1x]
EC90 (human cell lines): 102 µM
Amoebicidal Activity Inhibition % ± SEM [1]: 48.02% ± 3.69%
IC50 [1]: 54 µM

COc1ccc(C(=O)NCCNc2nccc(-c3c(-c4ccc(F)cc4)nc4sccn34)n2)cc1OC [Compound 1e]
inhibition of amoebae binding to human cells [2]: 40%
Amoebicidal Activity Inhibition % ± SEM [1]: 44.50% ± 1.79%

COc1cccc(-c2nc3sccn3c2-c2ccnc(NCCNC(=O)c3cc(N4CCOCC4)cc(C(F)(F)F)c3)n2)c1 [Compound 1t]
Amoebicidal Activity Inhibition % ± SEM [1]: 17.46% ± 3.75%
amoebicidal effects / antiamoebic activity against A. castellanii [1]: did not show promising antiamoebic activity

O=C(NCCNc1nccc(-c2c(-c3cccc(O)c3)nc3sccn23)n1)Nc1ccccc1 [Compound 1u]
Amoebicidal Activity Inhibition % ± SEM [1]: 12.66% ± 5.04%
amoebicidal effects / antiamoebic activity against A. castellanii [1]: did not show promising antiamoebic activity

COc1cccc(-c2nc3sccn3c2-c2ccnc(NCCNC(=O)c3ccc(N4CCOCC4)c(C(F)(F)F)c3)n2)c1 [Compound 1s]
Amoebicidal Activity Inhibition % ± SEM [1]: 39.10% ± 2.31%

O=C(NCCNc1nccc(-c2c(-c3cccc(O)c3)nc3sccn23)n1)c1cc(C(F)(F)F)cc(C(F)(F)F)c1 [Compound 1za]
Amoebicidal Activity Inhibition % ± SEM [1]: 15.71% ± 6.61%
amoebicidal effects / antiamoebic activity against A. castellanii [1]: did not show promising antiamoebic activity

COc1cccc(-c2nc3sccn3c2-c2ccnc(NCCNC(=O)c3ccccc3)n2)c1 [Compound 1o]
Amoebicidal Activity Inhibition % ± SEM [1]: 11.78% ± 11.34%
amoebicidal effects / antiamoebic activity against A. castellanii [1]: did not show promising antiamoebic activity

COc1cccc(NC(=O)NCCNc2nccc(-c3c(-c4ccc(F)cc4)nc4sccn34)n2)c1 [Compound 1a]
cytotoxicity against HeLa cells (HeLa cells): 35%
Amoebicidal Activity Inhibition % ± SEM [1]: 7.70% ± 3.57%

O=C(NCCNc1nccc(-c2c(-c3cccc(O)c3)nc3sccn23)n1)Nc1cc(C(F)(F)F)cc(C(F)(F)F)c1 [Compound 1w]
CC50 (human cell lines): 304 µM
EC90 (human cell lines): 36.1 µM
Amoebicidal Activity Inhibition % ± SEM [1]: 50.25% ± 4.67%
IC50 [1]: 46.3 µM

O=C(NCCNc1nccc(-c2c(-c3cccc(O)c3)nc3sccn23)n1)c1cccc(C(F)(F)F)c1 [Compound 1z]
encystation blocked (trophozoites prevented from converting into cysts) [3]: 60%
inhibition of amoebae binding to human cells [2]: 42%
CC50 (human cell lines): 412 µM
EC90 (human cell lines): 80.9 µM
Amoebicidal Activity Inhibition % ± SEM [1]: 52.53% ± 1.67%
IC50 [1]: 44.8 µM

O=C(NCCNc1nccc(-c2c(-c3cccc(O)c3)nc3sccn23)n1)c1ccccc1O [Compound 1y]
Amoebicidal Activity Inhibition % ± SEM [1]: 12.50% ± 4.68%
amoebicidal effects / antiamoebic activity against A. castellanii [1]: did not show promising antiamoebic activity

O=C(NCCNc1nccc(-c2c(-c3cccc(O)c3)nc3sccn23)n1)c1cc(N2CCOCC2)cc(C(F)(F)F)c1 [Compound 1zc]
Amoebicidal Activity Inhibition % ± SEM [1]: 14.79% ± 3.19%
amoebicidal effects / antiamoebic activity against A. castellanii [1]: did not show promising antiamoebic activity

COc1cccc(-c2nc3sccn3c2-c2ccnc(NCCNC(=O)c3cccc(C(F)(F)F)c3)n2)c1 [Compound 1q]
cytotoxicity against HeLa cells (HeLa cells): 38%
CC50 (human cell lines): 584 µM
EC90 (human cell lines): 30.6 µM
Amoebicidal Activity Inhibition % ± SEM [1]: 52.41% ± 5.31%
IC50 [1]: 47.7 µM

O=C(NCCNc1nccc(-c2c(-c3ccc(F)cc3)nc3sccn23)n1)c1cccc(C(F)(F)F)c1 [Compound 1h]
Amoebicidal Activity Inhibition % ± SEM [1]: 38.16% ± 3.74%

Cc1cn(-c2cc(C(=O)NCCNc3nccc(-c4c(-c5ccc(F)cc5)nc5sccn45)n3)cc(C(F)(F)F)c2)cn1 [Compound 1j]
Amoebicidal Activity Inhibition % ± SEM [1]: 42.34% ± 3.81%

Cc1ccc(C(=O)NCCNc2nccc(-c3c(-c4ccc(F)cc4)nc4sccn34)n2)cc1 [Compound 1d]
Amoebicidal Activity Inhibition % ± SEM [1]: 39.50% ± 1.53%

CC(C)(C)OC(=O)N1CCN(CCNc2nccc(-c3c(-c4ccc(F)cc4)nc4sccn34)n2)S1(=O)=O [Compound 1l]
inhibition of amoebae binding to human cells [2]: 42%
Amoebicidal Activity Inhibition % ± SEM [1]: 47.41% ± 1.67%
IC50 [1]: 59.9 µM

O=C(NCCNc1nccc(-c2c(-c3ccc(F)cc3)nc3sccn23)n1)Nc1cccc(C(F)(F)F)c1 [Compound 1b]
Amoebicidal Activity Inhibition % ± SEM [1]: 12.86% ± 5.93%

COc1cccc(-c2nc3sccn3c2-c2ccnc(NCCNC(=O)c3ccccc3O)n2)c1 [Compound 1p]
Amoebicidal Activity Inhibition % ± SEM [1]: 36.42% ± 5.43%

O=C(NCCNc1nccc(-c2c(-c3ccc(F)cc3)nc3sccn23)n1)c1cc(N2CCOCC2)cc(C(F)(F)F)c1 [Compound 1k]
Amoebicidal Activity Inhibition % ± SEM [1]: 16.58% ± 6.08%
amoebicidal effects / antiamoebic activity against A. castellanii [1]: did not show promising antiamoebic activity

O=C(NCCNc1nccc(-c2c(-c3ccc(F)cc3)nc3sccn23)n1)Nc1cc(C(F)(F)F)cc(C(F)(F)F)c1 [Compound 1c]
Amoebicidal Activity Inhibition % ± SEM [1]: 17.28% ± 1.88%

CN1CCN(CCNc2nccc(-c3c(-c4cccc(O)c4)nc4sccn34)n2)S1(=O)=O [Compound 1zd]
cytotoxicity against HeLa cells (HeLa cells): 37%
encystation blocked (trophozoites prevented from converting into cysts) [3]: 62%
inhibition of amoebae binding to human cells [2]: 42%
EC90 (human cell lines): 145 µM
Amoebicidal Activity Inhibition % ± SEM [1]: 58.00% ± 3.41%
amoebicidal effects / antiamoebic activity against A. castellanii [1]: 58%
IC50 [1]: 41 µM

COc1cccc(-c2nc3sccn3c2-c2ccnc(NCCNC(=O)Nc3cc(C(F)(F)F)cc(C(F)(F)F)c3)n2)c1 [Compound 1n]
CC50 (human cell lines): 648 µM
EC90 (human cell lines): 16.4 µM
Amoebicidal Activity Inhibition % ± SEM [1]: 51.05% ± 2.36%
IC50 [1]: 47.5 µM

O=C(NCCNc1nccc(-c2c(-c3cccc(O)c3)nc3sccn23)n1)Nc1cccc(C(F)(F)F)c1 [Compound 1v]
CC50 (human cell lines): 222 µM
EC90 (human cell lines): 5.36 µM
Amoebicidal Activity Inhibition % ± SEM [1]: 44.86% ± 2.98%
IC50 [1]: 60 µM

O=C(NCCNc1nccc(-c2c(-c3ccc(F)cc3)nc3sccn23)n1)c1ccccc1O [Compound 1g]
Amoebicidal Activity Inhibition % ± SEM [1]: 42.20% ± 3.29%

COc1cccc(-c2nc3sccn3c2-c2ccnc(NCCNC(=O)c3cc(C(F)(F)F)cc(C(F)(F)F)c3)n2)c1 [Compound 1r]
CC50 (human cell lines): 183 µM
EC90 (human cell lines): 33.9 µM
Amoebicidal Activity Inhibition % ± SEM [1]: 44.91% ± 8.42%
IC50 [1]: 64.7 µM

O=C(NCCNc1nccc(-c2c(-c3ccc(F)cc3)nc3sccn23)n1)c1ccc2c(c1)OCCO2 [Compound 1f]
Amoebicidal Activity Inhibition % ± SEM [1]: 40.50% ± 4.84%
